Patent publication US20230085307A1, “PYRIDAZINONE COMPOUND AND HERBICIDE” (NISSAN CHEMICAL CORPORATION, priority 2019, published 2023)

Assays:
velvetleaf = test: Test Example 4: herbicidal effect by soil treatment (Table 19, symbol M); format: in vivo, velvetleaf (Abutilon theophrasti); details: amount of applied herbicide 320 g/ha
In short: (§1)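 Step 1: sow seeds in sterilized diluvial soil, cover ~1.5 cm. Step 2: spray diluted emulsion onto soil surface at predetermined rate. Step 3: greenhouse, 25–30° C, three weeks. Step 4: grade effect on each plant by earlier criteria.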

persian speedwell [1] = test: Test Example 5: herbicidal effect by foliage application, plastic box (Table 20, symbol R); format: in vivo, Persian speedwell (Veronica persica); details: 320 g/ha; for R: persian speedwell, herbicidal effect grade: three weeks after application
In short: (§2)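 Foliar spray test: emulsion formulation diluted in water to a set application rate, sprayed onto 14-day-old plants raised in diluvial soil at 25° C to 30° C under glass. Both herbicidal effect and crop effect rated visually three weeks later.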

green foxtail = test: Test Example 5: herbicidal effect by foliage application, plastic box (Table 20, symbol G); format: in vivo, green foxtail (Setaria viridis); details: 320 g/ha; for G: green foxtail, herbicidal effect grade: three weeks after application
In short: as §2

Italian ryegrass = test: Test Example 4: herbicidal effect by soil treatment (Table 19, symbol K); format: in vivo, Italian ryegrass (Lolium multiflorum); details: amount of applied herbicide 320 g/ha
In short: as §1

chickweed [2] = test: Test Example 5: herbicidal effect by foliage application, plastic box (Table 20, symbol P); format: in vivo, common chickweed (Stellaria media); details: 320 g/ha; for P: chickweed, herbicidal effect grade: three weeks after application
In short: as §2

lambsquarters = test: Test Example 4: herbicidal effect by soil treatment (Table 19, symbol O); format: in vivo, lambsquarters (Chenopodium album); details: amount of applied herbicide 320 g/ha
In short: as §1

barnyard grass [3] = test: Test Example 3: herbicidal effect by foliage application, Wagner pot (Table 18, symbol H); format: in vivo, barnyard grass (Echinochloa crus-galli)
In short: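 Plants were sown in alluvial soil held under 0.1–0.5 cm standing water and grown 14 days in a greenhouse at 25–30 °C. An emulsifiable formulation, water-diluted to the set dose, was then sprayed onto the foliage, and effects were scored three weeks later using previously defined criteria.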

windgrass [4] = test: Test Example 5: herbicidal effect by foliage application, plastic box (Table 20, symbol L); format: in vivo, windgrass (Apera spica-venti); details: 320 g/ha; for L: windgrass, herbicidal effect grade: three weeks after application
In short: as §2

redroot pigweed = test: Test Example 5: herbicidal effect by foliage application, plastic box (Table 20, symbol N); format: in vivo, redroot pigweed (Amaranthus retroflexus); details: 320 g/ha; for N: redroot pigweed, herbicidal effect grade: three weeks after application
In short: as §2

late watergrass [5] = test: Test Example 1: herbicidal activity, application before weed generation under submerged conditions (Table 16, symbol A); format: in vivo, late watergrass (Echinochloa oryzicola); details: amount of applied herbicide 320 g/ha
In short: (§3)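 Emulsion formulation, water-diluted to set dose, was put onto the flooded surface (4 cm depth, alluvial soil) the same day weeds were sown and 2.5-leaf rice transplanted. After 3 weeks at 25-30 °C under glass, each species was rated 0 (≤5% kill) to 5 (≥90% kill).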

Japanese bulrush = test: Test Example 1: herbicidal activity, application before weed generation under submerged conditions (Table 16, symbol B); format: in vivo, Japanese bulrush (Schoenoplectus juncoides); details: amount of applied herbicide 320 g/ha
In short: as §3

barnyard grass [6] = test: Test Example 4: herbicidal effect by soil treatment (Table 19, symbol H); format: in vivo, barnyard grass (Echinochloa crus-galli); details: amount of applied herbicide 320 g/ha
In short: as §1

oval-leafed pondweed = test: Test Example 2: herbicidal activity, application during weed generation under submerged conditions (Table 17, symbol C); format: in vivo, oval-leafed pondweed (Monochoria vaginalis); details: for herbicidal effect rating, C: oval-leafed pondweed: AAH 320 g/ha, application during weed generation, submerged conditions
In short: (§4)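 Mixed weed seedlings in alluvial soil under a 4 cm water layer, greenhouse-grown at 25–30° C. Compound given as a diluted emulsion into the floodwater at the 1–2 leaf stage; response graded after three weeks.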

windgrass [7] = test: Test Example 4: herbicidal effect by soil treatment (Table 19, symbol L); format: in vivo, windgrass (Apera spica-venti); details: amount of applied herbicide 320 g/ha
In short: as §1

chickweed [8] = test: Test Example 4: herbicidal effect by soil treatment (Table 19, symbol P); format: in vivo, common chickweed (Stellaria media); details: amount of applied herbicide 320 g/ha
In short: as §1

persian speedwell [9] = test: Test Example 4: herbicidal effect by soil treatment (Table 19, symbol R); format: in vivo, Persian speedwell (Veronica persica); details: amount of applied herbicide 320 g/ha
In short: as §1

late watergrass [10] = test: Test Example 2: herbicidal activity, application during weed generation under submerged conditions (Table 17, symbol A); format: in vivo, late watergrass (Echinochloa oryzicola); details: for herbicidal effect rating, A: late watergrass: AAH 320 g/ha, application during weed generation, submerged conditions
In short: as §4

[11] = amount of applied herbicide 320 g/ha
[12] = foliage application after 14-day growth, evaluated three weeks after application
[13] = foliage application, evaluated 3 weeks after application
[14] = application during weed generation under submerged conditions, amount of applied herbicide 320 g/ha

| SMILES | herbicidal effect, M: velvetleaf (velvetleaf) | R: persian speedwell, herbicidal effect grade (persian speedwell [1]; foliage application) | G: green foxtail, herbicidal effect grade (green foxtail; foliage application) | herbicidal effect, K: Italian ryegrass (Italian ryegrass) | P: chickweed, herbicidal effect grade (chickweed [2]; foliage application) | herbicidal effect, O: lambsquarters (lambsquarters) | herbicidal effect on H: barnyard grass (barnyard grass [3]; [11]) | L: windgrass, herbicidal effect grade (windgrass [4]; foliage application) | N: redroot pigweed, herbicidal effect grade (redroot pigweed; foliage application) | Herbicidal effect, A: late watergrass (late watergrass [5]) | Herbicidal effect, B: Japanese bulrush (Japanese bulrush) | herbicidal effect, H: barnyard grass (barnyard grass [6]) | herbicidal effect rating, C: oval-leafed pondweed (oval-leafed pondweed) | herbicidal effect, L: windgrass (windgrass [7]) | herbicidal effect, P: chickweed (chickweed [8]) | herbicidal effect, R: persian speedwell (persian speedwell [9]) | herbicidal effect rating, A: late watergrass (late watergrass [10]) | other results |
| --- | --- | --- | --- | --- | --- | --- | --- | --- | --- | --- | --- | --- | --- | --- | --- | --- | --- | --- |
| CCCC(=O)Oc1c(CC)nn(C)c(=O)c1-c1c(-c2ccc(C(F)(F)F)cc2)sc2ccc(F)cc12 [2-411] | 0 (Herbicidal rate of 5% or less (almost no effect)) | 5 (Herbicidal rate of 90% or more (almost completely withered)) | 3 (Herbicidal rate of 40% or more and less than 70%) | 0 (Herbicidal rate of 5% or less (almost no effect)) | 5 (Herbicidal rate of 90% or more (almost completely withered)) | 0 (Herbicidal rate of 5% or less (almost no effect)) | 5 (Herbicidal rate of 90% or more (almost completely withered)) | 0 (Herbicidal rate of 5% or less (almost no effect)) | 5 (Herbicidal rate of 90% or more (almost completely withered)) | 3 (Herbicidal rate of 40% or more and less than 70%) | 0 (Herbicidal rate of 5% or less (almost no effect)) | 0 (Herbicidal rate of 5% or less (almost no effect)) | 0 (Herbicidal rate of 5% or less (almost no effect)) | 0 (Herbicidal rate of 5% or less (almost no effect)) | 1 (Herbicidal rate of 5% or more and less than 20%) | 2 (Herbicidal rate of 20% or more and less than 40%) | 3 (Herbicidal rate of 40% or more and less than 70%) |  |
| CCCC(=O)Oc1c(C)nn(C)c(=O)c1-c1c(-c2ccc(C(F)(F)F)cc2)sc2c(F)cccc12 [4-045] |  |  |  |  |  |  |  |  |  | 4 (Herbicidal rate of 70% or more and less than 90%) | 2 (Herbicidal rate of 20% or more and less than 40%) |  | 0 (Herbicidal rate of 5% or less (almost no effect)) |  |  |  | 3 (Herbicidal rate of 40% or more and less than 70%) | Herbicidal effect by soil treatment, M: velvetleaf (velvetleaf): 0 (Herbicidal rate of 5% or less (almost no effect)); herbicidal effect on R: persian speedwell (evaluation grade 0-5) (persian speedwell [1]; [12]): 5 (Herbicidal rate of 90% or more (almost completely withered)); herbicidal effect on G: green foxtail (evaluation grade 0-5) (green foxtail; [12]): 0 (Herbicidal rate of 5% or less (almost no effect)); Herbicidal effect by soil treatment, K: Italian ryegrass (Italian ryegrass): 0 (Herbicidal rate of 5% or less (almost no effect)); herbicidal effect on P: chickweed (evaluation grade 0-5) (chickweed [2]; [12]): 5 (Herbicidal rate of 90% or more (almost completely withered)); Herbicidal effect by soil treatment, O: lambsquarters (lambsquarters): 0 (Herbicidal rate of 5% or less (almost no effect)); herbicidal effect on barnyard grass (H) (barnyard grass [3]; 320 g/ha): 5 (Herbicidal rate of 90% or more (almost completely withered)); herbicidal effect on L: windgrass (evaluation grade 0-5) (windgrass [4]; [12]): 4 (Herbicidal rate of 70% or more and less than 90%); herbicidal effect on N: redroot pigweed (evaluation grade 0-5) (redroot pigweed; [12]): 4 (Herbicidal rate of 70% or more and less than 90%); Herbicidal effect by soil treatment, H: barnyard grass (barnyard grass [6]): 0 (Herbicidal rate of 5% or less (almost no effect)); Herbicidal effect by soil treatment, L: windgrass (windgrass [7]): 3 (Herbicidal rate of 40% or more and less than 70%); Herbicidal effect by soil treatment, P: chickweed (chickweed [8]): 3 (Herbicidal rate of 40% or more and less than 70%); Herbicidal effect by soil treatment, R: persian speedwell (persian speedwell [9]): 3 (Herbicidal rate of 40% or more and less than 70%) |
| COc1ccccc1-c1sc2cc(F)ccc2c1-c1c(O)c(C)nn(C)c1=O [3-003] | 3 (Herbicidal rate of 40% or more and less than 70%) | 5 (Herbicidal rate of 90% or more (almost completely withered)) | 5 (Herbicidal rate of 90% or more (almost completely withered)) | 4 (Herbicidal rate of 70% or more and less than 90%) | 5 (Herbicidal rate of 90% or more (almost completely withered)) | 4 (Herbicidal rate of 70% or more and less than 90%) | 5 (Herbicidal rate of 90% or more (almost completely withered)) | 5 (Herbicidal rate of 90% or more (almost completely withered)) | 5 (Herbicidal rate of 90% or more (almost completely withered)) | 3 (Herbicidal rate of 40% or more and less than 70%) | 4 (Herbicidal rate of 70% or more and less than 90%) | 4 (Herbicidal rate of 70% or more and less than 90%) | 4 (Herbicidal rate of 70% or more and less than 90%) | 3 (Herbicidal rate of 40% or more and less than 70%) | 4 (Herbicidal rate of 70% or more and less than 90%) | 4 (Herbicidal rate of 70% or more and less than 90%) | 2 (Herbicidal rate of 20% or more and less than 40%) |  |
| CSc1ccc(-c2oc3ccc(C)cc3c2-c2c(O)c(C)nn(C)c2=O)cc1 [9-055] |  |  |  |  |  |  |  |  |  | 5 (Herbicidal rate of 90% or more (almost completely withered)) | 4 (Herbicidal rate of 70% or more and less than 90%) |  |  |  |  |  |  | M: velvetleaf, herbicidal effect grade (velvetleaf): 5 (Herbicidal rate of 90% or more (almost completely withered)); R (persian speedwell) herbicidal effect grade (persian speedwell [1]; [13]): 5 (Herbicidal rate of 90% or more (almost completely withered)); G (green foxtail) herbicidal effect grade (green foxtail; [13]): 3 (Herbicidal rate of 40% or more and less than 70%); K: Italian ryegrass, herbicidal effect grade (Italian ryegrass): 5 (Herbicidal rate of 90% or more (almost completely withered)); P (chickweed) herbicidal effect grade (chickweed [2]; [13]): 5 (Herbicidal rate of 90% or more (almost completely withered)); O: lambsquarters, herbicidal effect grade (lambsquarters): 4 (Herbicidal rate of 70% or more and less than 90%); Herbicidal effect on H (barnyard grass), foliage application (barnyard grass [3]; [11]): 5 (Herbicidal rate of 90% or more (almost completely withered)); L (windgrass) herbicidal effect grade (windgrass [4]; [13]): 4 (Herbicidal rate of 70% or more and less than 90%); N (redroot pigweed) herbicidal effect grade (redroot pigweed; [13]): 5 (Herbicidal rate of 90% or more (almost completely withered)); H: barnyard grass, herbicidal effect grade (barnyard grass [6]): 3 (Herbicidal rate of 40% or more and less than 70%); herbicidal effect grade, C: oval-leafed pondweed (oval-leafed pondweed; [14]): 3 (Herbicidal rate of 40% or more and less than 70%); L: windgrass, herbicidal effect grade (windgrass [7]): 0 (Herbicidal rate of 5% or less (almost no effect)); P: chickweed, herbicidal effect grade (chickweed [8]): 5 (Herbicidal rate of 90% or more (almost completely withered)); R: persian speedwell, herbicidal effect grade (persian speedwell [9]): 5 (Herbicidal rate of 90% or more (almost completely withered)); herbicidal effect grade, A: late watergrass (late watergrass [10]; [14]): 4 (Herbicidal rate of 70% or more and less than 90%) |
